{"source": "patent US8211462B2", "about": "“Hot-melt TTS for administering rotigotine” (UCB Pharma GmbH, priority 2002, dated 2012)", "key": {"[1]": {"experiment": "Solubility of rotigotine in hydrophobic adhesives", "type": "physicochemical"}, "[2]": {"experiment": "Active-substance stability: rotigotine purity in the cement matrix by gradient HPLC", "type": "physicochemical", "details": "hot-melt processing", "procedure": "The cement matrix was mixed with 0.1% methane sulfonic acid, agitated, centrifuged and measured. (b3) Analytics of the Active-Substance Stability: […] Column: LiChrosphere 100 CN, 125 mm×4.6 mm, 5 μm. Flow rate: 1.0 mL, column temperature: 40° C. UV detection (2 wavelengths: 272 and 220 nm)."}}}
{"smiles": "CCCN(CCc1cccs1)[C@H]1CCc2c(O)cccc2C1", "note": "[rotigotine, (−)-5,6,7,8-tetrahydro-6-[propyl[2-(2-thienyl)ethyl-)amino]-1-naphthol]", "values": [{"measurement": "solubility of rotigotine in hydrophobic adhesives such as silicones", "setting": "[1]", "result": "soluble in trace amounts only"}, {"measurement": "remains stable under short-term heating to temperatures up to", "setting": "[2]", "result": "at least 160 °C"}]}
